Measurements from patent publication US12350337B2, “Polymeric drug delivery conjugates and methods of making and using thereof” (UNIVERSITY OF UTAH RESEARCH FOUNDATION, priority 2019, dated 2025).
Where no end group is shown, it is not given here. [ ]: non-standard residue; d: D form.

How the values were obtained:
4T1 tumors [1] = test: In vivo ICD induction and immune cell analysis after two doses; design: species or system BALB/c mice; settings: Day 15
Protocol: (§1) Fluorescence intensities were normalized to the same scale. Black circles indicate the tumor. (B) In vivo tumor cell uptake of EPI after the mice were treated with either free EPI or KT-1 (10 mg/kg EPI equivalence) at 1, 4, 7 days post injection. Data represent n=5 independently analyzed mice/group. […] Blue: cell nuclei; Green: EPI; Red: CRT. […] Data are represented as box plots (whiskers, 5th to 95th percentile). n=4 for saline and EPI treatments, and n=6 for KT-1 treatment, from a representative experiment from two independent experiments. * P<0.05 by student's t-test.
Having shown tumor-targeted delivery of KT-1, KT-1's impact on inducing ICD that implicates calreticulin (CRT) expression and high-mobility group box 1 (HMGB1) release was examined. CRT exposed on the surfaces of immunogenically dying tumor cells sends dendritic cells (DCs) an “eat me” signal to facilitate phagocytosis by antigen-presenting cells (APCs), while released HMGB1 functions as the “danger” signal and stimulates optimal antigen presentation to T cells. […] In FIG. 3D-E, BALB/c mice bearing non-immunogenic 4T1 tumors, were given two intravenous doses (on Days 7 and 14 after tumor implantation) of treatments with saline, EPI or KT-1 (first EPI equivalence dose 10 mg/kg followed by second dose 5 mg/kg).
This could be the result of efficiently triggering ICD-associated signals in tumors. […]

4T1 tumors [2] = test: 4T1 tumor growth, survival and endpoint tumor immune analysis (EPI, KT-1, α-CD8, α-PD-L1 combinations); assay type: in vivo, BALB/c mice
4T1 cells [3] = test: Internalization of surface bound P-(PPA)x-Cy3; assay type: cell-based, murine; settings: 37° C., compared with low-valence P-(PPA)1.3-Cy3 and P-Cy3
Protocol: Then surface PD-L1 along with receptor-bound conjugates were removed by proteinase-K digestion (0.4 mg/mL, 20 min, 37° C.), and flow cytometry was used to measure the internalized conjugates. Experiments were conducted in triplicate.
(§2) Together, these findings established the polymer-facilitated crosslinking of surface PD-L1 as a potential therapeutic strategy to produce prolonged elimination of PD-L1, rather than the transient blocking afforded by standard anti-PD-L1 antibodies.

4T1 tumors [4] = test: In vivo tumoral PD-L1 expression and tumor-infiltrating lymphocytes after KT-1 followed by PD-L1 blockade; design: species or system BALB/c mice; settings: for tumoral PD-L1 expression: KT-1 Days 7 and 14, PD-L1 blockade Day 15, two days post blockade
Protocol: (§3) (A) Schematic illustration of inhibiting PD-L1 recycling by MPPA crosslinking. (B) Lysosome colocalization with α-PD-L1-Cy5 or Cy3-labeled MPPA (P-(PPA)14-Cy3) after 3 h treatments at 37° C. Blue: nuclei; Red: Cy3/Cy5; Green: lysosome. (C) Whole cell PD-L1 expression with or without lysosome hydrolysis inhibition by E-64. 4T1 cells were treated with α-PD-L1, PPA, or MPPA for 3 h in the absence (−) or presence (+) of E-64 cysteine protease inhibitor. Afterward, cells were further incubated in cell culture medium for another 24 h, prior to PD-L1 quantification. (D) Time-dependent recovery of surface PD-L1. […] (E) In vivo tumoral PD-L1 expression, and (F) representative flow cytometry analysis plots of CD3+CD8+CTLs and CD4+ Foxp3+ Tregs after KT-1 and MPPA combination treatment as indicated by arrows in (E). n=3 in (C) and (D), and n=5 in (E) and (F), from a representative experiment from two independent experiments.
To validate the PD-L1 depletion in vivo, mice bearing 4T1-tumor were treated with α-PD-L1, PPA, or MPPA on Day 15, following two doses of KT-1 treatment on Day 7 and 14 (FIG. 7E). Tumoral PD-L1 expression and tumor-infiltrating lymphocytes were studied two days post PD-L1 blockade.

PD-L1 [5] = target: T1, PD-L1 (Mus musculus, UniProt Q9EP73); test: PPA specificity to PD-L1: inhibition of Cy5-labeled anti-PD-L1 antibody binding on 4T1 cells; design: species or system murine; settings: 0.2 mM, pretreatment 1 h, co-incubation 1 h, 4° C.
T1 construct: Specificity of PPA towards PD-L1 on 4T1 cells; endogenous in cells; host or cells: 4T1 cells
T1 sequence (Q9EP73 19-290): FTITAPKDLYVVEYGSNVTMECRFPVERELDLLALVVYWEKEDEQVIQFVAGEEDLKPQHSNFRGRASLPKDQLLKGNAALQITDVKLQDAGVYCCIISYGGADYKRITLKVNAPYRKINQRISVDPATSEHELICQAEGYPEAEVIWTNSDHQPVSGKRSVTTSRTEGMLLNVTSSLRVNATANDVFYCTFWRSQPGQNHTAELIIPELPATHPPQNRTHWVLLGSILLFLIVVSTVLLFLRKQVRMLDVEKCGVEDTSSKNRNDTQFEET
Protocol: (A) The PD-1/PD-L1 interaction mediated by PPA from immune escape to cancer immunotherapy. (B) Specificity of PPA towards PD-L1 on 4T1 cells. Negative control: Cy5-labeled anti-CD20 mAb rituximab (RTX) incubation with 4T1 cells at 4° C. for 1 h; Positive control: Cy5-labeled anti-PD-L1 antibody incubation with 4T1 cells at 4° C. for 1 h; PPA: 0.2 mM PPA pretreatment for 1 h and co-incubation with Cy5-labeled anti-PD-L1 antibody for 1 h 4° C. […] (C) Synthesis scheme and characterization of Cy3-labeled HPMA copolymer-PPA conjugates with different PPA valences.
PD-L1 peptide antagonist (PPA), with the amino acid sequence shown in FIG. 8A, was reported to bind PD-L1 with high affinity, and further confirmed in FIG. 8B. To achieve multimeric PD-L1 crosslinking, PPA was grafted onto HPMA copolymer to generate the multivalent polymer-PPA conjugates. By varying the ratio of the reaction components, a panel of conjugates was prepared with different valences for subsequent evaluation. Three conjugates with Cy3 labeled backbone were prepared: P-(PPA)14-Cy3, P-(PPA)4.3-Cy3, P-(PPA)1.3-Cy3, with the subscript denotes the valence. Additionally, unlabeled MPPA for receptor depletion studies was prepared with degradable backbone.

4T1 tumors [6] = test: 4T1 tumor therapy with PPA, MPPA and KT-1 combinations; assay type: in vivo, BALB/c mice
Excerpt: (B) Individual tumor volume, (C) body weight change, and (D) survival rate in 4T1-tumor bearing BALB/c mice over time after different treatments (n=5-10). (E) Individual tumor volume measurement after naive control mice or KT-1→MPPA treated CR mice in (D) were subcutaneously re-challenged with 4T1 or CT26 cells (n=5). (F) The representative scatter plots of the percentage of tumor cell-reactive T cells (IFN-γ+CD8+) among PBMCs from KT-1→MPPA treated CR mice in (D) against 4T1 cells or CT26 cells (n=5). (G) Mice survival curve after re-challenge by i.v. injection of 4T1 cells after initial KT-1→MPPA treatment (n=5). (H) CD44+CD62L-memory effector CD8+ T cells in spleen after 4T1 cell i.v. re-challenge (n=5).

PD-L1 [7] = target: T1, PD-L1; settings: cited from earlier work
CT26 tumors = test: Subcutaneous CT26 colon carcinoma model; assay type: in vivo, BALB/c mice
Excerpt: Blue: cell nuclei; Green: EPI; Red: CRT.
Moreover, KT-1→MPPA further improved the anti-tumor efficacy, and outperformed KT-1→α-PD-L1 (20% complete tumor regression), leading to complete regression of established tumors in 60% of animals (FIG. 15A).

[8] = system: LLC-1 Lewis lung carcinoma cells; test: Metastatic LLC-1 Lewis lung carcinoma model
Protocol: (I) Survival rate of mice after indicated treatments (n=5). C57BL/6 mice were intravenously inoculated with 2×10^5 LLC-1 Lewis lung carcinoma cells on day 0. Then mice were treated as described in (A). (J) The fold increases in the percentage tumor cell-reactive T cells (IFN-γ+CD8+) among PBMCs from mice in (I) on Day 25 against LLC-1 cells. (K) CD44+CD62L-memory effector CD8+ T cells in spleen from mice in (I) on Day 25. (L) Tumor burden in lungs from mice in (I) on Day 25, depicted as lung weight and hematoxylin-eosin histology analysis of lung lobe sections.* P<0.05, n.s, not significant, one-way ANOVA with Tukey's multiple comparison test.

PD-L1 [9] = target: T1, PD-L1; test: Whole cell PD-L1 expression with or without E-64; assay type: cell-based, murine
Protocol: as §3, §2

4T1 cells [10] = test: Lysosome colocalization (confocal); assay type: cell-based, murine; settings: 3 h at 37° C.
Protocol: as §3, §2

4T1 tumor = system: 4T1 tumor; design: species or system BALB/c mice; settings: mouse, in vivo, iv
Protocol: as §1
KT-1, a degradable diblock HPMA copolymer-EPI conjugate with narrow polydispersity, was synthesized via one step reversible addition-fragmentation chain transfer (RAFT) polymerization and characterized in FIG. 2B and the techniques provided in Yang et al., J. Controlled Release, 218 (2015) 36-44. KT-1 has long-lasting retention in tumors. […] In contrast, KT-1-Cy5 profoundly accumulated at tumor site, which peaked at 24 h and lasted for at least 196 h.

[11] = 3 weekly treatments, EPI equivalence 10 mg/kg then two doses 5 mg/kg
[12] = KT-1 Days 7 and 14, PD-L1 blockade Day 15

COc1cccc2c1C(=O)c1c(O)c3c(c(O)c1C2=O)C[C@@](O)(C(=O)CO)C[C@@H]3O[C@H]1C[C@H](N)[C@@H](O)[C@H](C)O1 [EPI, Epirubicin]
frequency of CD11c+CD11b+Ly6c+CD86+ cells in tumor-draining lymph nodes (4T1 tumors [1]): failed to generate the subset of CD11c+CD11b+Ly6c+ DCs | animal survival (4T1 tumors [2]; [11]): limited effect | tumor growth (4T1 tumors [2]; [11]): limited effect on controlling tumor | tumor PD-L1 expression after chemotherapy (4T1 tumors [2]; endpoint of 3 weekly treatments): adaptively enriched

P-(PPA)14-Cy3 ([dN][dY][dS][dK][dP][dT][dD][dR][dQ][dY][dH][dF]; also: conjugated to (PPA)14 and Cy3, places not given here)
internalization rate (4T1 cells [3]): accelerated internalization rates

P-(PPA)4.3-Cy3 ([dN][dY][dS][dK][dP][dT][dD][dR][dQ][dY][dH][dF]; also: conjugated to (PPA)4.3 and Cy3, places not given here)
internalization rate (4T1 cells [3]): accelerated internalization rates

NYSKPTDRQYHF [PPA]
Tregs in tumors (4T1 tumors [4]; [12]): depleted Tregs | tumor infiltration of CTLs (4T1 tumors [4]; [12]): did not further enhance tumor infiltration of CTLs | tumoral PD-L1 expression (4T1 tumors [4]): downregulated PD-L1 expression | cell surface binding of anti-PD-L1 antibody after pretreatment (PD-L1 [5]): significantly inhibited | tumor growth / therapeutic efficacy (4T1 tumors [6]): barely delayed tumor growth | binding to PD-L1 (reported) (PD-L1 [7]): high affinity

MPPA: backbone-degradable HPMA copolymer grafted with multiple copies of PD-L1 peptide antagonist PPA, valence 12.6 (CNYSKPTDRQYHF)
tumor infiltration of CTLs (4T1 tumors [4]; [12]): did not further enhance tumor infiltration of CTLs | tumoral PD-L1 expression (4T1 tumors [4]): further reduction in PD-L1 expression | tumor growth (CT26 tumors; CT26, KT-1 days 7, 14, 21, anti-PD-L1 therapy days 15, 22): marginal effect in inhibiting tumor growth | PD-L1 expression in CT26 tumors (CT26 tumors; Day 17, after KT-1 Days 7 and 14, one dose Day 15): more profound decrease in PD-L1 expression than α-PD-L1 | median survival ([8]; C57BL/6 mice, i.v. LLC-1 cells): 28 days | reactive IFN-γ+CD8+ T cells in PBMCs and CD8+CD62L-CD44+ effector memory T cells in spleen ([8]; Day 25): none of the treatments with saline, α-PD-L1, or MPPA increased the number | PD-L1 depletion (PD-L1 [9]; 24 h post cell binding, without E-64): depleted PD-L1 to a higher degree than α-PD-L1 | PD-L1 depletion in the presence of E-64 (PD-L1 [9]; E-64 cysteine protease inhibitor present): alleviated MPPA-triggered PD-L1 depletion | tumor growth / therapeutic efficacy (4T1 tumors [6]): slightly better therapeutic efficacy than PPA | lysosome colocalization (4T1 cells [10]): substantial MPPA internalized into lysosome

cyanine 5 [Cy5]
tumor retention (in words) (4T1 tumor): rapidly eliminated from the tumor and barely detectable after 2 h post-injection
